Assay results from PubChem BioAssay (NCI).
Where “and” joins values, the source holds several entries; their conditions need not be identical. Equal entries are not always repeated.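 Briefly, cells in 96-well plates were exposed to five compound concentrations for 48 h, and endpoints were estimated by linear interpolation. Abbreviation: GI50, concentration required for 50% inhibition of growth. The concentration for full growth arrest is given as TGI.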

Each compound was assayed on LOX IMVI melanoma (assay: DTP human tumour cell line panel, 48 h).

Row | Structure (SMILES) | GI50 [µM] | TGI
1 | N.N.N.N.N.[Cl-].[Co+3].c1ccc(-c2nn[n-]n2)cc1 | > 100 | > 100 µM
2 | COc1cccc2c1C(=O)c1c(O)c3c(c(O)c1C2=O)CC(O)(C(O)CO)CC3OC1CC(N2CCOCC2)C(O)C(C)O1 (stereo not drawn) | 0.00285 | 0.15 µM and 0.0586 µM
3 | C1COCCN1.C1COCCN1.NC1CCCCC1N.[Cl-].[Pt+2] (stereo not drawn) | > 100 | > 100 µM
4 | COC1OC(CBr)C(OC(=O)c2ccccc2)C(O)C1Br (stereo not drawn) | – | > 100 µM
5 | O=C(NC(=O)c1cn(CCN(CCO)C(=O)NCCCCCCNC(=O)N(CCO)CCn2cc(C(=O)NC(=O)OCc3ccccc3)c(=O)[nH]c2=O)c(=O)[nH]c1=O)OCc1ccccc1 | – | > 100 µM
6 | CCOC1=C2C(=O)OC(=O)C2C2CCCCC2=C1 (stereo not drawn) | – | > 100 µM
7 | Cc1cc2c(C)nn(Cc3ccccc3)c2c(C(N)=O)c1C | – | > 100 µM
8 | C=CCNC(=O)N(CCCC(NC(C)=O)C(=O)NCc1ccccc1)Cc1ccccc1 (stereo not drawn) | – | > 100 µM
9 | c1ccc(C(c2ccccc2)c2cccnc2)cc1 | – | > 100 µM
10 | C1=CC=C2NCCCCCCCNC3=CC=CC=CC3=NCCCCCCCN=C2C=C1 | – | > 100 µM
11 | COC(=O)/C(=N\NC(=O)C[N+](C)(C)C)C(C(=O)OC)C(=O)C(=O)Nc1ccccc1C(N)=O (stereo not drawn) | – | > 100 µM
12 | CC1CN(c2ccc(Cl)cc2)CC(C)OC(=O)O1 (stereo not drawn) | – | > 100 µM
13 | COCC(O)Cn1ccnc1[N+](=O)[O-] (stereo not drawn) | – | > 100 µM
14 | O=c1ccn(C2CC(O)C(CO)O2)c(=O)[nH]1 (stereo not drawn) | > 5000 | > 5000 µM
15 | OCC1C(/C=C/c2ccoc2)ON2CCCC12 (stereo not drawn) | – | > 100 µM
16 | O=C(N/C(=C/c1ccc(Cl)cc1Cl)c1nc2ccccc2s1)c1ccccc1 | – | 18.7 µM
17 | COc1c(O)cc2oc(-c3ccc(O)cc3)cc(=O)c2c1O | – | > 100 µM

Row | Structure (SMILES) | GI50 [µM] | TGI
18 | COc1cccc(-c2nn(-c3ccccc3)cc2-c2ccnc(NCCCNC(=O)Nc3ccc(Cl)c(Cl)c3)c2)c1 | 1.64 | 3.03 µM
19 | COc1cc2ccccc2oc1=O | – | > 100 µM
20 | Nc1nc(N)c2nc(CNc3ccc(C(=O)NC(CC(=O)O)C(=O)O)cc3)cnc2n1 (stereo not drawn) | 0.16 | > 100 µM
21 | O=C1c2cccc(NCCN=Cc3cc([N+](=O)[O-])ccc3O)c2C(=O)c2c(NCCN=Cc3cc([N+](=O)[O-])ccc3O)cccc21 | 2.62 | 29.1 µM
22 | CC(=O)OC[C@]12CC[C@@H](C(=O)CBr)[C@@H]1[C@H]1CC[C@@H]3[C@@]4(C)CCCNC(C)(C)[C@@H]4CC[C@@]3(C)[C@]1(C)CC2 | 1.76 | 3.31 µM
23 | COc1cc2c3c(n(CCCCN)c(=O)c2cc1OC)-c1cc2c(cc1C3=O)OCO2 | 0.107 | 0.529 µM
24 | N#CCCN(CCCN(CCCN(C(=O)Nc1ccccc1)c1ccccc1)C(=O)Nc1ccccc1)C(=O)Nc1ccccc1 | – | > 100 µM
25 | C=CCC1(O)c2ccccc2C(=O)c2c(NCCN(CC(=O)OCC)CC(=O)OCC)cccc21 (stereo not drawn) | > 100 | > 100 µM
26 | Cc1ccc([N+](=O)[O-])cc1NC(=O)/C(=N/NC(=S)NN)C1SC(=S)NC1=O (stereo not drawn) | – | > 100 µM
27 | COc1cccc(-n2nc(C)c3c(N/N=C(\C)c4ccncc4)ncnc32)c1 | > 25 | > 25 µM
28 | Cc1ccc(-c2nc(C#N)c(S(=O)(=O)n3nc(C)cc3N)o2)cc1 | 1.86 | 3.59 µM
29 | COc1cccc2c1ccc1nc3cccc(C(=O)N[C@H](C)CN(C)C)c3nc12 | 0.0474 | 0.55 µM
30 | NC(=O)c1ccc(I)c(N=O)c1 | 16.7 | 31.8 µM
31 | COc1ccc2c(=O)cc(-c3ccncc3)oc2c1OC | – | > 100 µM
32 | O=C(O)c1cc2ccc3ccccc3c2oc1=O | – | > 100 µM
33 | O=[N+]([O-])c1ccc2c(c1)Cc1cc(N=Cc3ccc4c(c3)OCO4)ccc1-2 | – | > 100 µM
34 | COC(=O)[C@@]12OC[C@]34[C@H]([C@@H](O)[C@@H]1O)[C@@]1(C)[C@H](O)C(=O)C=C(C)[C@@H]1C[C@H]3OC(=O)C(OC(C)=O)[C@@H]24 (stereo partly drawn) | 0.0152 | 0.0311 µM

The compounds below were run on EKVX NSCLC (assay: DTP human tumour cell line panel, 48 h).

Row | Structure (SMILES) | GI50 [µM] | TGI
35 | N.N.N.N.N.[Cl-].[Co+3].c1ccc(-c2nn[n-]n2)cc1 | > 100 | > 100 µM
36 | COc1cccc2c1C(=O)c1c(O)c3c(c(O)c1C2=O)CC(O)(C(O)CO)CC3OC1CC(N2CCOCC2)C(O)C(C)O1 (stereo not drawn) | 0.0304 | 0.0334 µM and 0.146 µM
37 | C1COCCN1.C1COCCN1.NC1CCCCC1N.[Cl-].[Pt+2] (stereo not drawn) | > 100 | > 100 µM
38 | C[C@]12CCC(=O)C=C1CC[C@@H]1C2CC[C@]2(C)Nc3c(cnn3-c3ccccc3)CC12 (stereo partly drawn) | – | > 100 µM
39 | O=C(NC(=O)c1cn(CCN(CCO)C(=O)NCCCCCCNC(=O)N(CCO)CCn2cc(C(=O)NC(=O)OCc3ccccc3)c(=O)[nH]c2=O)c(=O)[nH]c1=O)OCc1ccccc1 | – | > 100 µM
40 | CCOC1=C2C(=O)OC(=O)C2C2CCCCC2=C1 (stereo not drawn) | – | > 100 µM
41 | Cc1cc2c(C)nn(Cc3ccccc3)c2c(C(N)=O)c1C | – | > 100 µM
42 | C=CCNC(=O)N(CCCC(NC(C)=O)C(=O)NCc1ccccc1)Cc1ccccc1 (stereo not drawn) | – | > 100 µM
43 | c1ccc(C(c2ccccc2)c2cccnc2)cc1 | – | > 100 µM
44 | C1=CC=C2NCCCCCCCNC3=CC=CC=CC3=NCCCCCCCN=C2C=C1 | – | > 100 µM
45 | COC(=O)/C(=N\NC(=O)C[N+](C)(C)C)C(C(=O)OC)C(=O)C(=O)Nc1ccccc1C(N)=O (stereo not drawn) | – | > 100 µM
46 | CC1CN(c2ccc(Cl)cc2)CC(C)OC(=O)O1 (stereo not drawn) | – | > 100 µM
47 | COCC(O)Cn1ccnc1[N+](=O)[O-] (stereo not drawn) | – | > 100 µM
48 | O=c1ccn(C2CC(O)C(CO)O2)c(=O)[nH]1 (stereo not drawn) | > 5000 | > 5000 µM
49 | OCC1C(/C=C/c2ccoc2)ON2CCCC12 (stereo not drawn) | – | > 100 µM
50 | O=C(N/C(=C/c1ccc(Cl)cc1Cl)c1nc2ccccc2s1)c1ccccc1 | – | 41 µM
51 | COc1c(O)cc2oc(-c3ccc(O)cc3)cc(=O)c2c1O | – | 98.1 µM
52 | COc1cccc(-c2nn(-c3ccccc3)cc2-c2ccnc(NCCCNC(=O)Nc3ccc(Cl)c(Cl)c3)c2)c1 | 3.51 | 17.5 µM

Row | Structure (SMILES) | GI50 [µM] | TGI
53 | COc1cc2ccccc2oc1=O | – | > 100 µM
54 | Nc1nc(N)c2nc(CNc3ccc(C(=O)NC(CC(=O)O)C(=O)O)cc3)cnc2n1 (stereo not drawn) | 1.57 | > 100 µM
55 | O=C1c2cccc(NCCN=Cc3cc([N+](=O)[O-])ccc3O)c2C(=O)c2c(NCCN=Cc3cc([N+](=O)[O-])ccc3O)cccc21 | 16.1 | > 100 µM
56 | CC(=O)OC[C@]12CC[C@@H](C(=O)CBr)[C@@H]1[C@H]1CC[C@@H]3[C@@]4(C)CCCNC(C)(C)[C@@H]4CC[C@@]3(C)[C@]1(C)CC2 | 12.5 | 25.2 µM
57 | COc1cc2c3c(n(CCCCN)c(=O)c2cc1OC)-c1cc2c(cc1C3=O)OCO2 | 0.744 | 3.57 µM
58 | Cc1cc(NCCCCCCNc2cc(C)nc3cc(N(C)C)ccc23)c2ccc(N(C)C)cc2n1 | – | > 100 µM
59 | N#CCCN(CCCN(CCCN(C(=O)Nc1ccccc1)c1ccccc1)C(=O)Nc1ccccc1)C(=O)Nc1ccccc1 | 16.3 | > 8.75 µM and 70.5 µM
60 | C=CCC1(O)c2ccccc2C(=O)c2c(NCCN(CC(=O)OCC)CC(=O)OCC)cccc21 (stereo not drawn) | > 100 | > 100 µM
61 | Cc1ccc([N+](=O)[O-])cc1NC(=O)/C(=N/NC(=S)NN)C1SC(=S)NC1=O (stereo not drawn) | – | > 100 µM
62 | COc1cccc(-n2nc(C)c3c(N/N=C(\C)c4ccncc4)ncnc32)c1 | > 25 | > 25 µM
63 | Cc1ccc(-c2nc(C#N)c(S(=O)(=O)n3nc(C)cc3N)o2)cc1 | 21.8 | 55 µM
64 | COc1cccc2c1ccc1nc3cccc(C(=O)N[C@H](C)CN(C)C)c3nc12 | 0.141 | 3.16 µM
65 | NC(=O)c1ccc(I)c(N=O)c1 | 81.1 | > 100 µM
66 | COc1ccc2c(=O)cc(-c3ccncc3)oc2c1OC | – | > 100 µM
67 | O=C(O)c1cc2ccc3ccccc3c2oc1=O | – | > 100 µM
68 | O=[N+]([O-])c1ccc2c(c1)Cc1cc(N=Cc3ccc4c(c3)OCO4)ccc1-2 | – | > 100 µM
69 | COC(=O)[C@@]12OC[C@]34[C@H]([C@@H](O)[C@@H]1O)[C@@]1(C)[C@H](O)C(=O)C=C(C)[C@@H]1C[C@H]3OC(=O)C(OC(C)=O)[C@@H]24 (stereo partly drawn) | 0.0529 | 0.372 µM

The compounds below were run on M19-MEL melanoma (assay: DTP human tumour cell line panel, 48 h).

Row | Structure (SMILES) | GI50 [µM] | TGI [µM]
70 | COc1cccc2c1C(=O)c1c(O)c3c(c(O)c1C2=O)CC(O)(C(O)CO)CC3OC1CC(N2CCOCC2)C(O)C(C)O1 (stereo not drawn) | < 0.001 | –
71 | C1COCCN1.C1COCCN1.NC1CCCCC1N.[Cl-].[Pt+2] (stereo not drawn) | > 100 | > 100
72 | COC1OC(CBr)C(OC(=O)c2ccccc2)C(O)C1Br (stereo not drawn) | – | > 100
73 | C[C@]12CCC(=O)C=C1CC[C@@H]1C2CC[C@]2(C)Nc3c(cnn3-c3ccccc3)CC12 (stereo partly drawn) | – | > 100
74 | O=C(NC(=O)c1cn(CCN(CCO)C(=O)NCCCCCCNC(=O)N(CCO)CCn2cc(C(=O)NC(=O)OCc3ccccc3)c(=O)[nH]c2=O)c(=O)[nH]c1=O)OCc1ccccc1 | – | > 100
75 | CCOC1=C2C(=O)OC(=O)C2C2CCCCC2=C1 (stereo not drawn) | – | > 100
76 | Cc1cc2c(C)nn(Cc3ccccc3)c2c(C(N)=O)c1C | – | > 100
